The source of these data is ChEMBL document CHEMBL1126253, “Energy aspects of oil/water partition leading to the novel hydrophobic parameters for the analysis of quantitative structure-activity relationships” (J Med Chem, 1992).

Series [1] can be described thus: Partition coefficient (logD2.0). The following applies: octanol/water. The series is classed as physicochemical.
Series [2] in a line: log (1/C') was determined. It is filed as ADME.
Series [3] is filed under the species Rattus norvegicus. Briefly: Concentration of the drug in the liver of rat. It is filed as ADME, organism-based. The conditions noted are these: in vivo.
For series [4], the species on record is Rattus norvegicus. Kind of series: Concentration of the drug in the kidney of rat. The series is classed as ADME, organism-based. The following applies: in vivo.
Series [5] concerns Culicidae. Kind of series: Concentration required to kill 50% of the mosquito larva in 24 hr. The series is classed as organism-based. The conditions noted are these: in vivo.

SMILES strings stand for the structures.

A word on the logD: it is the decadic logarithm of the distribution of all forms, ionised or not, between an organic phase and buffer at a given pH. For the molecule `CCc1ccc(C(=O)O)cc1`, the logD in series [1] (pH 2, read-out: logD) was 2.89.

Regarding `O=C(O)c1ccc(I)cc1`, the “Log LD50” value is listed as -2.31. Moreover, the “Log 1/C” value in series [2] was 0.99. Moreover, the logD in series [1] is 3.05.

Regarding `N#Cc1ccc(C(=O)O)cc1`, the figures for the “Log M” value in series [3] and in series [4] were 0.62 and 1.57, respectively. The logD in series [1] (pH 2, read-out: logD) turned out to be 1.63.

For the molecule `CN(C)c1cccc(C(=O)O)c1`, the “Log M” value in series [3] stood at 0.2; in series [4], 0.45. In addition, the logD in series [1] (pH 2, read-out: logD) amounted to 0.22.

`CN(C)c1ccc(C(=O)O)cc1`: the results for the “Log M” value in series [3] and in series [4] were 0.17 and 0.08, respectively. Also, in series [1] (pH 2, read-out: logD), the logD came to 1.28.

On to `CCCOc1ccc(C(=O)O)cc1`, for which, in series [1] (pH 2, read-out: logD), the logD came to 3.09.

For the molecule `O=C(O)c1ccccc1I`, in series [2], the “Log 1/C” value came to 1.19. Moreover, the logD in series [1] (pH 2, read-out: logD) stood at 2.45.

As for `O=Cc1ccc(C(=O)O)cc1`, in series [1] (pH 2, read-out: logD), the logD is 1.76.

As to `O=C(O)c1ccccc1F`, in series [2], the “Log 1/C” value worked out at 1.82. Besides, the logD in series [1] (pH 2, read-out: logD) came to 1.52.

For the molecule `O=C(O)c1ccccc1[N+](=O)[O-]`, the “Log 1/C” value in series [2] was 1.54. Also, the logD in series [1] (pH 2, read-out: logD) turned out to be 1.2.

`O=C(O)c1c(Cl)cccc1Cl`: the “Log LD50” value is -1.22. The logD in series [1] (pH 2, read-out: logD) came to 1.8.

With `[N-]=[N+]=Nc1ccc(C(=O)O)cc1`, in series [1] (pH 2, read-out: logD), the logD was 2.54.

`O=C(O)c1ccccc1Cl`: the “Log 1/C” value in series [2] is recorded as 2.15. Further, the logD in series [1] is 2.02. Further, in series [5], the “Log LD50” value was -1.62.

Consider `O=C(O)c1ccccc1Br`, for which the “Log 1/C” value in series [2] came out at 1.9. Moreover, in series [1] (pH 2, read-out: logD), the logD was 2.14.

As to `CC(=O)Nc1cccc(C(=O)O)c1`, the “Log M” value is given as -0.29 in series [3] and -0.1 in series [4]. Moreover, the logD in series [1] (pH 2, read-out: logD) was 1.32.

As to `CCCCc1ccc(C(=O)O)cc1`, the logD in series [1] (pH 2, read-out: logD) stood at 3.63.

Regarding `CC(C)c1ccc(C(=O)O)cc1`, the logD in series [1] (pH 2, read-out: logD) amounted to 3.28.

Take `CCCc1ccc(C(=O)O)cc1`: the log distribution coefficient (logD) in series [1] (pH 2, read-out: logD) stood at 3.42.

On to `O=C(O)c1cccc(Cl)c1`, for which the “Log LD50” value was -2. In addition, the “Log M” value in series [3] is 1.57. Further, the “Log 1/C” value in series [2] amounted to 2.16. The molecule further returned a logD in series [1] of 2.72. Moreover, the “Log M” value in series [4] is listed as 1.79.

`O=C(O)c1ccc(Cl)c(Cl)c1`: the “Log LD50” value is -2.28. Moreover, the “Log 1/C” value in series [2] is listed as 2.47. This molecule also showed a logD in series [1] of 3.25.

Regarding `O=C(O)c1ccc(Br)cc1`, the “Log LD50” value is -2.03. Moreover, the “Log 1/C” value in series [2] is given as 1.19. The logD in series [1] was found to be 2.81.

Regarding `COc1cccc(C(=O)O)c1`, the “Log M” value in series [3] came to 1.34; in series [4] it was 1.35. In addition, in series [2], the “Log 1/C” value is reported as 0.29. Also, in series [1] (pH 2, read-out: logD), the logD was 1.98.

In the case of `O=C(O)c1cccc([N+](=O)[O-])c1`, the “Log M” value in series [3] is recorded as 0.73; in series [4] it was 1.23. Also, in series [2], the “Log 1/C” value is reported as 0.22. The logD in series [1] is given as 1.69.

On to `O=C(O)c1ccc(F)cc1`, for which the “Log LD50” value is -1.85. The “Log 1/C” value in series [2] is 1.27. In addition, in series [1] (pH 2, read-out: logD), the logD worked out at 2.05.

Turning to `CCOc1ccc(C(=O)O)cc1`, the “Log M” value in series [3] amounted to 0.92; in series [4] it was 0.89.

`O=C(O)c1cc(Cl)ccc1Cl`: the “Log LD50” value is reported as -1.77. The “Log 1/C” value in series [2] is 1.63. The logD in series [1] (pH 2, read-out: logD) turned out to be 2.82.

As for `O=C(O)c1ccc(C(F)(F)F)cc1`, in series [1] (pH 2, read-out: logD), the logD is 3.18.

In the case of `Nc1ccc(C(=O)O)cc1`, the “Log LD50” value is on record as -1.54. Further, in series [3], the “Log M” value turned out to be 0.59. The “Log 1/C” value in series [2] was -1.67. For the same molecule, the logD in series [1] (pH 2, read-out: logD) came out at 0.76. Further, the “Log M” value in series [4] is 0.79.

Regarding `O=C(O)c1cccc(Br)c1`, the “Log 1/C” value in series [2] came to 1.71. The logD in series [1] is on record as 2.86.

Regarding `N#Cc1cccc(C(=O)O)c1`, the results for the “Log M” value in series [3] and in series [4] were 0.69 and 0.95, respectively. The logD in series [1] (pH 2, read-out: logD) is 1.65.

Take `O=C(O)c1cccc(C(F)(F)F)c1`: the logD in series [1] (pH 2, read-out: logD) was found to be 2.99.

Consider `Cc1cccc(C(=O)O)c1`, for which the “Log M” value is reported as 1.71 in series [3] and 1.83 in series [4].

With `O=C(O)c1cccc(I)c1`, in series [2], the “Log 1/C” value is recorded as 1.29. The same molecule showed a logD in series [1] of 3.13.

On to `O=C(O)c1cc(I)cc(I)c1I` [2,3,5-TRIIODOBENZOIC ACID], for which the logD in series [1] (pH 2, read-out: logD) is 3.45.

As to `Nc1cccc(C(=O)O)c1` [3-AMINOBENZOIC ACID], the “Log M” value turned out to be 0.76 in series [3] and 1.45 in series [4]. For the same molecule, the “Log 1/C” value in series [2] was -1. Moreover, in series [1] (pH 2, read-out: logD), the logD is -0.79.

Turning to `O=C(O)c1cccc(O)c1` [3-HYDROXYBENZOIC ACID], the “Log 1/C” value in series [2] is listed as -0.99. The molecule further registered a logD in series [1] of 1.55.

Take `Cc1ccc(C(=O)O)cc1` [4-METHYLBENZOIC ACID]: the logD in series [1] turned out to be 2.26.

In the case of `O=C(O)c1ccc([N+](=O)[O-])cc1` [4-NITROBENZOIC ACID], the “Log LD50” value is on record as -1.52. Also, the “Log M” value in series [3] was 0.79. In addition, the logD in series [1] is on record as 1.84. In series [4], the “Log M” value was found to be 1.02.

As to `CC(=O)Nc1ccc(C(=O)O)cc1` [ACEDOBEN], the figures for the “Log M” value in series [3] and in series [4] were -0.08 and -0.64, respectively. Moreover, in series [1] (pH 2, read-out: logD), the logD was 1.27.

On to `NCc1ccc(C(=O)O)cc1` [AMINOMETHYLBENZOIC ACID], for which the logD in series [1] (pH 2, read-out: logD) came to 1.03.

In the case of `Nc1ccccc1C(=O)O` [ANTHRANILIC ACID], the logD in series [1] (pH 2, read-out: logD) was 0.51.

Regarding `O=C(O)c1ccccc1` [BENZOIC ACID], the “Log M” value is on record as 1.28 in series [3] and 1.44 in series [4].

With `O=C(O)c1ccc2ccccc2c1` [BETA-NAPHTOIC ACID], the “Log LD50” value is -1.92. The logD in series [1] (pH 2, read-out: logD) is 2.78.

Take `NS(=O)(=O)c1ccc(C(=O)O)cc1` [CARZENIDE]: the pH-dependent lipophilicity (logD) in series [1] (pH 2, read-out: logD) is 0.55.

Take `O=C(O)c1cccc2ccccc12` [NAPHTHOIC ACID]: the “Log LD50” value is -1.46. Moreover, the logD in series [1] (pH 2, read-out: logD) came out at 2.98.

As to `O=C(O)c1ccc(O)cc1` [PARABEN], the “Log LD50” value is listed as -1.29. The “Log 1/C” value in series [2] is recorded as -1.69. Also, in series [1] (pH 2, read-out: logD), the logD is 1.41.

On to `Cc1ccccc1C(=O)O` [TOLUIC ACID], for which the logD in series [1] (pH 2, read-out: logD) amounted to 2.27.

`COc1ccc(C(=O)O)cc1` [p-ANISIC ACID]: the “Log LD50” value was -1.6. Further, the “Log M” value in series [3] is recorded as 1.09. The “Log 1/C” value in series [2] is on record as -0.66. Moreover, the logD in series [1] (pH 2, read-out: logD) is 1.95. In addition, the “Log M” value in series [4] is recorded as 1.
